# Reference: patent US9540391B2, “Isomannide derivatives as inhibitors of soluble epoxide hydrolase” (SANOFI, priority 2013, dated 2017)
# Structures can show the parent of a compound that is named as a salt.
# Biological target: T1, recombinant sEH (Homo sapiens, UniProt P34913)
# T1 construct: made in house; host or cells: Sf9 insect cells
# T1 sequence (P34913 1-555): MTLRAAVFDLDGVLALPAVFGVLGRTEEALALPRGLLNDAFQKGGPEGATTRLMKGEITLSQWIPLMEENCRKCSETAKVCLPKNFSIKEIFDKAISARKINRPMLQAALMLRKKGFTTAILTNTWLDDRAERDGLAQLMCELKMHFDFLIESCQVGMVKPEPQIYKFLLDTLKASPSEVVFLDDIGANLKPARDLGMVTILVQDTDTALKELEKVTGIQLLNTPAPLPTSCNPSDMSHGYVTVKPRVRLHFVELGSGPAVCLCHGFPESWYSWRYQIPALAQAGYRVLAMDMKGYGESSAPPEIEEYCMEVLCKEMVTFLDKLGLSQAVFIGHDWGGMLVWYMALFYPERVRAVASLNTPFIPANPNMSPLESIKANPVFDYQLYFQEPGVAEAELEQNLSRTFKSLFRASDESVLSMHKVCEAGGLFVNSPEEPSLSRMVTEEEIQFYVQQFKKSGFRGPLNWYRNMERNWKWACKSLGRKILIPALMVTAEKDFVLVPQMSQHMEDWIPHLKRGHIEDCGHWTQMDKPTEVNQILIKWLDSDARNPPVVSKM
# Assay: biochemical screening assay for inhibition of soluble epoxide hydrolase (fluorometric, Phome substrate)
# Summary of the method: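 Human sEH from Sf9 cells (2 nM final) was pre-incubated 15 min at 30 °C with compound (0.0001–10 μM), then reacted 60 min at 30 °C with 5 μM Phome in 25 mM Hepes/0.01% albumin. Fluorescence of released 6-methoxy-2-naphthaldehyde was read before substrate and at end; IC50 from % inhibition.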
row,Compound,IC50 [nM]
1,"O=C(NC1CCCCC1)N[C@H]1CO[C@H]2[C@@H]1OC[C@@H]2Oc1cc(Br)ccc1Cl [Example 147, 1-[(3S,3aR,6S,6aS)-6-(5-Bromo-2-chloro-phenoxy)-hexahydro-furo[3,2-b]furan-3-yl]-3-cyclohexyl-urea]",2
2,"O=C(NC1CCCCC1)N[C@H]1CO[C@H]2[C@@H]1OC[C@@H]2/C=C\c1ccccc1 [Example 319, 1-Cyclohexyl-3-[(3S,3aR,6S,6aR)-6-((Z)-styryl)-hexahydro-furo[3,2-b]furan-3-yl]-urea]",17
3,"O=C(Nc1ccc(C(F)(F)F)cc1)NC1COC2C(C#Cc3ccsc3)COC12 [Example 308, 1-((3S,3aR,6S,6aR)-6-Thio-phen-3-ylethynyl-hexahydro-furo[3,2-b]furan-3-yl)-3-(4-trifluoromethyl-phenyl)-urea]",48
4,"O=C(NC1CCCCC1)N(Cc1ccccc1)[C@H]1CO[C@@H]2[C@@H](CO)CO[C@@H]21 [Example 6, 1-benzyl-3-cyclohexyl-1-((3S,3aR,6S,6aR)-6-hydroxymethyl-hexahydro-furo[3,2-b]furan-3-yl)-urea]",8000
5,"O=C(Nc1ccc(Cl)c(Cl)c1)NC1COC2C(C=Cc3ccccc3)COC12 [Example 326, 1-(3,4-Dichloro-phenyl)-3-[(3S,3aR,6R)-6-((S)-(Z)-styryl)-hexa-hydro-furo[3,2-b]furan-3-yl]-urea]",27
6,"Cc1cc(C)cc(NC(=O)NC2COC3C(C=Cc4ccccc4)COC23)c1 [Example 322, 1-(3,5-Dimethyl-phenyl)-3-[(3S,3aR,6R)-6-((S)-(Z)-styryl)-hexa-hydro-furo[3,2-b]furan-3-yl]-urea]",7
7,"Cc1ncccc1O[C@H]1CO[C@H]2[C@@H]1OC[C@@H]2NC(=O)NC(C)(C)c1ccncc1 [Example 250, 1-(1-Methyl-1-pyridin-4-yl-ethyl)-3-[(3S,3aR,6S,6aS)-6-(2-methyl-pyridin-3-yloxy)-hexahydro-furo[3,2-b]furan-3-yl]-urea]",3120
8,"Cc1ncccc1O[C@H]1CO[C@H]2[C@@H]1OC[C@@H]2NC(=O)NCc1cccc2c1OC(C)(C)C2 [Example 224, 1-(2,2-Dimethyl-2,3-dihydro-benzofuran-7-ylmethyl)-3-[(3S,3aR,6S,6aS)-6-(2-methyl-pyridin-3-yloxy)-hexahydro-furo[3,2-b]furan-3-yl]-urea]",39
9,"Cc1ncccc1O[C@H]1CO[C@H]2[C@@H]1OC[C@@H]2NC(=O)NCc1ccccn1 [Example 172, 1-[(3S,3aR,6S,6aS)-6-(2-Methyl-pyridin-3-yloxy)-hexahydro-furo[3,2-b]furan-3-yl]-3-pyridin-2-ylmethyl-urea]",1240
10,"CCCCOc1ccc(NC(=O)NC2COC3C(CCc4ccccc4)COC23)cc1 [Example 351, 1-(4-Butoxy-phenyl)-3-[(3S,3aR,6R)-6-((S)-phenethyl)-hexahydro-furo[3,2-b]furan-3-yl]-urea]",161
11,"Cc1ncccc1O[C@H]1CO[C@H]2[C@@H]1OC[C@@H]2NC(=O)NCc1cc(F)ccc1OC(F)(F)F [Example 279, 1-(5-Fluoro-2-trifluoromethoxy-benzyl)-3-[(3S,3aR,6S,6aS)-6-(2-methyl-pyridin-3-yloxy)-hexahydro-furo[3,2-b]furan-3-yl]-urea]",1
12,"O=C(NC1CCCCC1)N[C@H]1CO[C@H]2[C@@H]1OC[C@@H]2Oc1cccn2ccnc12 [Example 130, 1-Cyclohexyl-3-[(3S,3aR,6S,6aS)-6-(imidazo[1,2-a]pyridin-8-yloxy)-hexa-hydro-furo[3,2-b]furan-3-yl]-urea]",38
13,"Cc1ncccc1O[C@H]1CO[C@H]2[C@@H]1OC[C@@H]2NC(=O)NC1CCSCC1 [Example 228, 1-[(3S,3aR,6S,6aS)-6-(2-Methyl-pyridin-3-yloxy)-hexahydro-furo[3,2-b]furan-3-yl]-3-(tetrahydro-thiopyran-4-yl)-urea]",9
14,"Cc1cc(C)cc(NC(=O)NC2COC3C(C=Cc4ccsc4)COC23)c1 [Example 336, 1-(3,5-Dimethyl-phenyl)-3-[(3S,3aR,6S,-6aR)-6-((Z)-2-thiophen-3-yl-vinyl)-hexahydro-furo[3,2-b]furan-3-yl]-urea]",47
15,"Cc1ncccc1O[C@H]1CO[C@H]2[C@@H]1OC[C@@H]2NC(=O)NC(C)(C)C1CCCCC1 [Example 241, 1-(1-Cyclohexyl-1-methyl-ethyl)-3-[(3S,3aR,6S,6aS)-6-(2-methyl-pyridin-3-yloxy)-hexahydro-furo[3,2-b]furan-3-yl]-urea]",117
16,"Cc1ncccc1O[C@H]1CO[C@H]2[C@@H]1OC[C@@H]2NC(=O)N[C@@H]1CCCC[C@H]1F [Example 274, 1-((1R,2R)-2-Fluoro-cyclohexyl)-3-[(3S,3aR,6S,6aS)-6-(2-methyl-pyridin-3-yloxy)-hexahydro-furo[3,2-b]furan-3-yl]-urea]",14
17,"COC1COCCC1NC(=O)N[C@H]1CO[C@H]2[C@@H]1OC[C@@H]2Oc1cccnc1C (stereo partly drawn) [Example 78, 1-(3-methoxy-tetrahydro-pyran-4-yl)-3-[(3S,3aR,6S,6aS)-6-(2-methyl-pyridin-3-yloxy)-hexahydro-furo[3,2-b]furan-3-yl]-urea; hydrochloride]",1330

# The remaining compounds from weak to strong by IC50, led by results:
row,IC50 [nM],Compound
1,825,"Cc1ncccc1O[C@H]1CO[C@H]2[C@@H]1OC[C@@H]2NC(=O)NC1CCC(=O)N(C)C1 (stereo partly drawn) [Example 245, 1-(1-Methyl-6-oxo-piperidin-3-yl)-3-[(3S,3aR,6S,6aS)-6-(2-methyl-pyridin-3-yloxy)-hexahydro-furo[3,2-b]furan-3-yl]-urea]"
2,75,"O=C(NCc1ccc(F)cc1)NC1COC2C(C=Cc3ccccc3)COC12 [Example 325, 1-(4-Fluoro-benzyl)-3-[(3S,3aR,6R)-6-((S)-(Z)-styryl)-hexahydro-furo[3,2-b]furan-3-yl]-urea]"
3,26,"Cc1ncccc1O[C@H]1CO[C@H]2[C@@H]1OC[C@@H]2NC(=O)NCC1COc2ccccc2O1 (stereo partly drawn) [Example 196, 1-(2,3-Dihydro-benzo[1,4]dioxin-2-ylmethyl)-3-[(3S,3aR,6S,6aS)-6-(2-methyl-pyridin-3-yloxy)-hexahydro-furo[3,2-b]furan-3-yl]-urea]"
4,19,"O=C(NC1CCCCC1)N[C@H]1CO[C@H]2[C@@H]1OC[C@@H]2C#Cc1ccccn1 [Example 300, 1-Cyclohexyl-3-((3S,3aR,6S,-6aR)-6-pyridin-2-ylethynyl-hexahydro-furo[3,2-b]furan-3-yl)-urea; trifluoroacetate]"
5,7,"CC(C)(C)c1ccc(O[C@H]2CO[C@H]3[C@@H]2OC[C@@H]3NC(=O)NC2CCCCC2)cc1 [Example 103, 1-[(3S,3aR,6S,6aS)-6-(4-tert-Butyl-phenoxy)-hexahydro-furo[3,2-b]furan-3-yl]-3-cyclohexyl-urea]"
6,6,"Cc1ncccc1O[C@H]1CO[C@H]2[C@@H]1OC[C@@H]2NC(=O)NCC1(c2ccccc2)CCCC1 [Example 184, 1-[(3S,3aR,6S,6aS)-6-(2-Methyl-pyridin-3-yloxy)-hexahydro-furo[3,2-b]furan-3-yl]-3-(1-phenyl-cyclopentylmethyl)-urea]"
7,3,"CC(C)(CCO)S[C@H]1CO[C@H]2[C@@H]1OC[C@@H]2NC(=O)NC1CCCCC1 [Example 22, 1-Cyclohexyl-3-[(3S,3aR,6S,6aS)-6-(3-hydroxy-1,1-dimethyl-propylsulfanyl)-hexahydro-furo[3,2-b]furan-3-yl]-urea]"
8,1,"O=C(NC1CCCCC1)N[C@H]1CO[C@H]2[C@@H]1OC[C@@H]2SC1CCCCC1 [Example 12, 1-cyclohexyl-3-((3S,3aR,6S,6aS)-6-cyclohexylsulfanyl-hexahydro-furo[3,2-b]furan-3-yl)-urea]"
